What was measured:
Assay type in all cases: in vivo
[1] = system: Ipomoea hederacea (IPOHE); assay: Pre-emergence herbicidal glasshouse test; conditions: for percentage damage caused to the plant, five-point scale, IPOHE: pre-emergence, 250 g/ha, 13 days after application; for % phytotoxicity IPOHE: comparative pre-emergence test
Method: (§1) Seeds of a variety of test species are shown in standard soil in pots Amaranthus retoflexus (AMARE), Ipomoea hederacea (IPOHE), Solanum nigrum (SOLNI), Lolium perenne (LOLPE). Echinochloa crus-galli (ECHCG), Setaria faberi (SETFA)). After cultivation for one day (pre-emergence) or after 8 days cultivation (post-emergence) under controlled conditions in a glasshouse (at 24/16° C., day/night; 14 hours light; 65% humidity), the plants are sprayed with an aqueous spray solution derived from the formulation of the technical active ingredient in acetone/water (50:50) solution containing 0.5% Tween 20 (polyoxyethylene sorbitan monolaurate, CAS RN 9005-64-5). Compounds are applied at 250 g/ha unless otherwise stated. The test plants are then grown in a glasshouse under controlled conditions in a glasshouse (at 24/16° C., day/night; 14 hours light; 65% humidity) and watered twice daily. After 13 days for pre and post-emergence, the test is evaluated for the percentage damage caused to the plant. The biological activities are shown in the following table on a five-point scale (5=81-100%; 4=61-80%; 3=41-60%; 2=21-40%; 1=0-20%).
(§2) Using the experimental conditions outlined above, a further test is conducted to compare the herbicidal properties of the difluro containing compound (1.014) with a representative compound (C1) referred to in GB901553. The compounds are applied at 1000 g/ha and 500 g/ha. The test is evaluated for the percentage damage caused to the plant (% phytotoxicity).

Setaria faberi (SETFA) [2] = assay: Pre-emergence herbicidal glasshouse test; conditions: for percentage damage caused to the plant, five-point scale, SETFA: pre-emergence, 250 g/ha, 13 days after application; for % phytotoxicity SETFA: comparative pre-emergence test
Method: as §1, §2

[3] = system: Echinochloa crus-galli (ECHCG); assay: Pre-emergence herbicidal glasshouse test; conditions: for percentage damage caused to the plant, five-point scale, ECHCG: pre-emergence, 250 g/ha, 13 days after application; for % phytotoxicity ECHCG: comparative pre-emergence test
Method: as §1, §2

Lolium perenne (LOLPE) [4] = assay: Pre-emergence herbicidal glasshouse test; conditions: for percentage damage caused to the plant, five-point scale, LOLPE: pre-emergence, 250 g/ha, 13 days after application; for % phytotoxicity LOLPE: comparative pre-emergence test
Method: as §1, §2

Solanum nigrum (SOLNI) [5] = assay: Pre-emergence herbicidal glasshouse test; conditions: for percentage damage caused to the plant, five-point scale, SOLNI: pre-emergence, 250 g/ha, 13 days after application; for % phytotoxicity SOLNI: comparative pre-emergence test
Method: as §1, §2

[6] = system: Amaranthus retoflexus (AMARE); assay: Pre-emergence herbicidal glasshouse test; conditions: for percentage damage caused to the plant, five-point scale, AMARE: pre-emergence, 250 g/ha, 13 days after application; for % phytotoxicity AMARE: comparative pre-emergence test
Method: as §1, §2

[7] = system: Ipomoea hederacea (IPOHE); assay: Post-emergence herbicidal glasshouse test; conditions: for percentage damage caused to the plant, five-point scale, IPOHE: post-emergence, 250 g/ha, 13 days after application; for % phytotoxicity IPOHE: comparative post-emergence test
Method: as §1, §2

Setaria faberi (SETFA) [8] = assay: Post-emergence herbicidal glasshouse test; conditions: for percentage damage caused to the plant, five-point scale, SETFA: post-emergence, 250 g/ha, 13 days after application; for % phytotoxicity SETFA: comparative post-emergence test
Method: as §1, §2

[9] = system: Echinochloa crus-galli (ECHCG); assay: Post-emergence herbicidal glasshouse test; conditions: for percentage damage caused to the plant, five-point scale, ECHCG: post-emergence, 250 g/ha, 13 days after application; for % phytotoxicity ECHCG: comparative post-emergence test
Method: as §1, §2

Lolium perenne (LOLPE) [10] = assay: Post-emergence herbicidal glasshouse test; conditions: for percentage damage caused to the plant, five-point scale, LOLPE: post-emergence, 250 g/ha, 13 days after application; for % phytotoxicity LOLPE: comparative post-emergence test
Method: as §1, §2

Solanum nigrum (SOLNI) [11] = assay: Post-emergence herbicidal glasshouse test; conditions: for percentage damage caused to the plant, five-point scale, SOLNI: post-emergence, 250 g/ha, 13 days after application; for % phytotoxicity SOLNI: comparative post-emergence test
Method: as §1, §2

[12] = system: Amaranthus retoflexus (AMARE); assay: Post-emergence herbicidal glasshouse test; conditions: for percentage damage caused to the plant, five-point scale, AMARE: post-emergence, 250 g/ha, 13 days after application; for % phytotoxicity AMARE: comparative post-emergence test
Method: as §1, §2

O=C(O)C(F)(F)c1ccccc1Cl [Compound 1.011]
percentage damage caused to the plant, five-point scale, IPOHE [1]: 4 (4=61-80%) | percentage damage caused to the plant, five-point scale, SETFA (Setaria faberi (SETFA) [2]): 2 (2=21-40%) | percentage damage caused to the plant, five-point scale, ECHCG [3]: 1 (1=0-20%) | percentage damage caused to the plant, five-point scale, LOLPE (Lolium perenne (LOLPE) [4]): 1 (1=0-20%) | percentage damage caused to the plant, five-point scale, SOLNI (Solanum nigrum (SOLNI) [5]): 4 (4=61-80%) | percentage damage caused to the plant, five-point scale, AMARE [6]: 5 (5=81-100%) | percentage damage caused to the plant, five-point scale, IPOHE [7]: 3 (3=41-60%) | percentage damage caused to the plant, five-point scale, SETFA (Setaria faberi (SETFA) [8]): 1 (1=0-20%) | percentage damage caused to the plant, five-point scale, ECHCG [9]: 1 (1=0-20%) | percentage damage caused to the plant, five-point scale, LOLPE (Lolium perenne (LOLPE) [10]): 1 (1=0-20%) | percentage damage caused to the plant, five-point scale, SOLNI (Solanum nigrum (SOLNI) [11]): 5 (5=81-100%) | percentage damage caused to the plant, five-point scale, AMARE [12]: 5 (5=81-100%)

O=C(O)C(F)(F)c1cc(Cl)ccc1Cl [Compound 1.012]
percentage damage caused to the plant, five-point scale, IPOHE [1]: 3 (3=41-60%) | percentage damage caused to the plant, five-point scale, SETFA (Setaria faberi (SETFA) [2]): 1 (1=0-20%) | percentage damage caused to the plant, five-point scale, ECHCG [3]: 1 (1=0-20%) | percentage damage caused to the plant, five-point scale, LOLPE (Lolium perenne (LOLPE) [4]): 1 (1=0-20%) | percentage damage caused to the plant, five-point scale, SOLNI (Solanum nigrum (SOLNI) [5]): 3 (3=41-60%) | percentage damage caused to the plant, five-point scale, AMARE [6]: 4 (4=61-80%) | percentage damage caused to the plant, five-point scale, IPOHE [7]: 3 (3=41-60%) | percentage damage caused to the plant, five-point scale, SETFA (Setaria faberi (SETFA) [8]): 1 (1=0-20%) | percentage damage caused to the plant, five-point scale, ECHCG [9]: 1 (1=0-20%) | percentage damage caused to the plant, five-point scale, LOLPE (Lolium perenne (LOLPE) [10]): 1 (1=0-20%) | percentage damage caused to the plant, five-point scale, SOLNI (Solanum nigrum (SOLNI) [11]): 4 (4=61-80%) | percentage damage caused to the plant, five-point scale, AMARE [12]: 4 (4=61-80%)

O=C(O)C(F)(F)c1cccc(Cl)c1Cl [Compound 1.014]
% phytotoxicity IPOHE ([1]; 500 g/ha): 80% | % phytotoxicity IPOHE ([1]; 1000 g/ha): 90% | percentage damage caused to the plant, five-point scale, IPOHE [1]: 5 (5=81-100%) | % phytotoxicity SETFA (Setaria faberi (SETFA) [2]; 500 g/ha): 90% | % phytotoxicity SETFA (Setaria faberi (SETFA) [2]; 1000 g/ha): 90% | percentage damage caused to the plant, five-point scale, SETFA (Setaria faberi (SETFA) [2]): 4 (4=61-80%) | % phytotoxicity ECHCG ([3]; 500 g/ha): 30% | % phytotoxicity ECHCG ([3]; 1000 g/ha): 80% | percentage damage caused to the plant, five-point scale, ECHCG [3]: 5 (5=81-100%) | % phytotoxicity LOLPE (Lolium perenne (LOLPE) [4]; 500 g/ha): 10% | % phytotoxicity LOLPE (Lolium perenne (LOLPE) [4]; 1000 g/ha): 40% | percentage damage caused to the plant, five-point scale, LOLPE (Lolium perenne (LOLPE) [4]): 1 (1=0-20%) | % phytotoxicity SOLNI (Solanum nigrum (SOLNI) [5]; 500 g/ha): 100% | % phytotoxicity SOLNI (Solanum nigrum (SOLNI) [5]; 1000 g/ha): 100% | percentage damage caused to the plant, five-point scale, SOLNI (Solanum nigrum (SOLNI) [5]): 5 (5=81-100%) | % phytotoxicity AMARE ([6]; 500 g/ha): 90% | % phytotoxicity AMARE ([6]; 1000 g/ha): 100% | percentage damage caused to the plant, five-point scale, AMARE [6]: 5 (5=81-100%) | % phytotoxicity IPOHE ([7]; 500 g/ha): 90% | % phytotoxicity IPOHE ([7]; 1000 g/ha): 90% | percentage damage caused to the plant, five-point scale, IPOHE [7]: 5 (5=81-100%) | % phytotoxicity SETFA (Setaria faberi (SETFA) [8]; 500 g/ha): 90% | % phytotoxicity SETFA (Setaria faberi (SETFA) [8]; 1000 g/ha): 90% | percentage damage caused to the plant, five-point scale, SETFA (Setaria faberi (SETFA) [8]): 5 (5=81-100%) | % phytotoxicity ECHCG ([9]; 500 g/ha): 80% | % phytotoxicity ECHCG ([9]; 1000 g/ha): 90% | percentage damage caused to the plant, five-point scale, ECHCG [9]: 5 (5=81-100%) | % phytotoxicity LOLPE (Lolium perenne (LOLPE) [10]; 500 g/ha): 10% | % phytotoxicity LOLPE (Lolium perenne (LOLPE) [10]; 1000 g/ha): 20% | percentage damage caused to the plant, five-point scale, LOLPE (Lolium perenne (LOLPE) [10]): 1 (1=0-20%) | % phytotoxicity SOLNI (Solanum nigrum (SOLNI) [11]; 500 g/ha): 100% | % phytotoxicity SOLNI (Solanum nigrum (SOLNI) [11]; 1000 g/ha): 100% | percentage damage caused to the plant, five-point scale, SOLNI (Solanum nigrum (SOLNI) [11]): 5 (5=81-100%) | % phytotoxicity AMARE ([12]; 500 g/ha): 100% | % phytotoxicity AMARE ([12]; 1000 g/ha): 100% | percentage damage caused to the plant, five-point scale, AMARE [12]: 5 (5=81-100%)

O=C(O)C(F)(F)c1cccc(Cl)c1F [Compound 1.029]
percentage damage caused to the plant, five-point scale, IPOHE [1]: 3 (3=41-60%) | percentage damage caused to the plant, five-point scale, SETFA (Setaria faberi (SETFA) [2]): 2 (2=21-40%) | percentage damage caused to the plant, five-point scale, ECHCG [3]: 1 (1=0-20%) | percentage damage caused to the plant, five-point scale, LOLPE (Lolium perenne (LOLPE) [4]): 2 (2=21-40%) | percentage damage caused to the plant, five-point scale, SOLNI (Solanum nigrum (SOLNI) [5]): 5 (5=81-100%) | percentage damage caused to the plant, five-point scale, AMARE [6]: 5 (5=81-100%) | percentage damage caused to the plant, five-point scale, IPOHE [7]: 3 (3=41-60%) | percentage damage caused to the plant, five-point scale, SETFA (Setaria faberi (SETFA) [8]): 3 (3=41-60%) | percentage damage caused to the plant, five-point scale, ECHCG [9]: 2 (2=21-40%) | percentage damage caused to the plant, five-point scale, LOLPE (Lolium perenne (LOLPE) [10]): 1 (1=0-20%) | percentage damage caused to the plant, five-point scale, SOLNI (Solanum nigrum (SOLNI) [11]): 4 (4=61-80%) | percentage damage caused to the plant, five-point scale, AMARE [12]: 5 (5=81-100%)
